Measurements as given in PubChem BioAssay AID256 (DTP/NCI, 2004).
“And” between values parts separate entries of the source, which are not always exact repeats. Equal entries are not always repeated. Toxic doses and inconclusive results are not listed. How the source made its calls: active means survival T/C of 150% or more; inactive means T/C below 125% in these data.

Test system: CD2F1 mice, L1210 leukemia ip, survival T/C
Test: NCI In Vivo Anticancer Drug Screen. Data for tumor model L1210 Leukemia (intraperitoneal) in CD2F1 (CDF1) mice
Settings: higher = longer survival
Outline: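 Read-out first: treated-group measurement over vehicle-control measurement, expressed as a ratio. Animals bore a transplanted tumor line and were dosed with compound or vehicle.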

[1] = endpoint: mean survival time, dose: 25.0 mg/kg/injection, schedule: Q04DX003 (ip), vehicle: saline
[2] = endpoint: mean survival time, dose: 50.0 mg/kg/injection, schedule: Q04DX003 (ip), vehicle: saline
[3] = endpoint: mean survival time, dose: 100.0 mg/kg/injection, schedule: Q04DX003 (ip), vehicle: saline
[4] = endpoint: mean survival time, dose: 200.0 mg/kg/injection, schedule: Q04DX003 (ip), vehicle: saline
[5] = endpoint: mean survival time, dose: 400.0 mg/kg/injection, schedule: Q04DX003 (ip), vehicle: saline
[6] = endpoint: mean survival time, dose: 100.0 mg/kg/injection, schedule: Q04DX003 (ip), vehicle: saline with Tween-80
[7] = endpoint: mean survival time, dose: 200.0 mg/kg/injection, schedule: Q04DX003 (ip), vehicle: saline with Tween-80
[8] = endpoint: mean survival time, dose: 400.0 mg/kg/injection, schedule: Q04DX003 (ip), vehicle: saline with Tween-80
[9] = endpoint: mean survival time, dose: 50.0 mg/kg/injection, schedule: Q01DX009 (ip), vehicle: saline with Tween-80
[10] = endpoint: mean survival time, dose: 100.0 mg/kg/injection, schedule: Q01DX009 (ip), vehicle: saline with Tween-80
[11] = endpoint: mean survival time, dose: 200.0 mg/kg/injection, schedule: Q01DX009 (ip), vehicle: saline with Tween-80
[12] = endpoint: mean survival time, dose: 100.0 mg/kg/injection, schedule: Q04DX002 (ip), vehicle: other
[13] = endpoint: mean survival time, dose: 200.0 mg/kg/injection, schedule: Q04DX002 (ip), vehicle: other
[14] = endpoint: mean survival time, dose: 400.0 mg/kg/injection, schedule: Q04DX002 (ip), vehicle: other
[15] = endpoint: mean survival time, dose: 100.0 mg/kg/injection, schedule: Q01DX001 (ip), vehicle: saline with Tween-80

Measured: T/C

COc1ccc(C(OC/C=C(\C)CCC=C(C)C)OC/C=C(\C)CCC=C(C)C)cc1
inactive: endpoint: mean survival time, dose: 12.5 mg/kg/injection, schedule: Q01DX009 (ip), vehicle: other 90 % of control | endpoint: mean survival time, dose: 25.0 mg/kg/injection, schedule: Q01DX009 (ip), vehicle: other 90 % of control | endpoint: mean survival time, dose: 50.0 mg/kg/injection, schedule: Q01DX009 (ip), vehicle: other 90 % of control | endpoint: mean survival time, dose: 100.0 mg/kg/injection, schedule: Q01DX009 (ip), vehicle: other 95 % of control | endpoint: mean survival time, dose: 200.0 mg/kg/injection, schedule: Q01DX009 (ip), vehicle: other 95 % of control

CC(C)NC(=O)CCCCn1c(=O)c2ccccc2c(=O)n1C
inactive: [1] 96 % of control | [2] 96 % of control | [3] 98 % of control | [4] 113 % of control | [5] 104 % of control

NC(C(=O)O)=C(c1ccccc1)c1ccccc1
inactive: endpoint: mean survival time, dose: 100.0 mg/kg/injection, schedule: Q04DX002 (ip), vehicle: saline with Tween-80 98 % of control | endpoint: mean survival time, dose: 200.0 mg/kg/injection, schedule: Q04DX002 (ip), vehicle: saline with Tween-80 102 % of control | endpoint: mean survival time, dose: 400.0 mg/kg/injection, schedule: Q04DX002 (ip), vehicle: saline with Tween-80 102 % of control

COc1ccc(Br)cc1C1OC(=O)c2c(OC)c(OC)cc([N+](=O)[O-])c21 (stereo not drawn)
inactive: [6] 92 % of control | [7] 93 % of control

COC(CN(C)Cc1c[nH]c2ccccc12)OC
inactive: endpoint: mean survival time, dose: 75.0 mg/kg/injection, schedule: Q01DX001 (ip), vehicle: saline 107 % of control

Nc1nc(=O)c2[nH]cnc2n1O
inactive: endpoint: mean survival time, dose: 12.5 mg/kg/injection, schedule: Q04DX003 (ip), vehicle: acetone 97 % of control | endpoint: mean survival time, dose: 16.5 mg/kg/injection, schedule: Q01DX009 (ip), vehicle: saline 102 % of control | endpoint: mean survival time, dose: 25.0 mg/kg/injection, schedule: Q01DX009 (ip), vehicle: saline 102 % of control | endpoint: mean survival time, dose: 25.0 mg/kg/injection, schedule: Q04DX003 (ip), vehicle: acetone 94 % of control | endpoint: mean survival time, dose: 50.0 mg/kg/injection, schedule: Q04DX003 (ip), vehicle: acetone 97 % of control | endpoint: mean survival time, dose: 55.0 mg/kg/injection, schedule: Q01DX009 (ip), vehicle: saline 118 % of control

O=NC1CC=CC1Cl (stereo not drawn)
inactive: endpoint: mean survival time, dose: 100.0 mg/kg/injection, schedule: Q01DX001 (ip), vehicle: saline 96 % of control and 98 % of control | endpoint: mean survival time, dose: 200.0 mg/kg/injection, schedule: Q01DX001 (ip), vehicle: saline 107 % of control and 102 % of control | endpoint: mean survival time, dose: 400.0 mg/kg/injection, schedule: Q01DX001 (ip), vehicle: saline 101 % of control and 98 % of control

COc1ccccc1OCC(C)=O
inactive: [6] 108 % of control | [7] 98 % of control | [8] 97 % of control

CC1CN1P(=O)(N1CC1C)N1CC1C (stereo not drawn)
inactive: endpoint: mean survival time, dose: 9.5 mg/kg/injection, schedule: Q01DX001 (ip), vehicle: saline 101 % of control | endpoint: mean survival time, dose: 19.0 mg/kg/injection, schedule: Q01DX001 (ip), vehicle: saline 106 % of control | endpoint: mean survival time, dose: 38.0 mg/kg/injection, schedule: Q01DX001 (ip), vehicle: saline 117 % of control

CC1(OO)CC(=O)OO1 (stereo not drawn)
inactive: endpoint: mean survival time, dose: 5.0 mg/kg/injection, schedule: Q01DX001 (ip), vehicle: saline 90 % of control | endpoint: mean survival time, dose: 10.0 mg/kg/injection, schedule: Q01DX001 (ip), vehicle: saline 95 % of control | endpoint: mean survival time, dose: 20.0 mg/kg/injection, schedule: Q01DX001 (ip), vehicle: saline 92 % of control

O=C(CCl)Nc1cccc2c1CCCC2
inactive: [9] 97 % of control | [10] 94 % of control | [6] 98 % of control | [11] 91 % of control | [7] 96 % of control

COc1cc(Cl)ccc1NC(=O)OCCOc1c(C(C)C)cccc1C(C)C
inactive: [9] 101 % of control | [10] 101 % of control | [11] 89 % of control

OC(COc1ccccc1)COc1ccccc1
inactive: [10] 98 % of control | [11] 93 % of control | endpoint: mean survival time, dose: 400.0 mg/kg/injection, schedule: Q01DX009 (ip), vehicle: saline with Tween-80 89 % of control

COc1ccc2[nH]c(-c3ccccc3)cc2c1
inactive: [6] 93 % of control | [7] 88 % of control | [8] 98 % of control

OC1(Cc2ccccc2)CCCCCC1
inactive: [12] 95 % of control | [13] 92 % of control | [14] 92 % of control

O=C(/C=C\c1ccccc1)/C=C/c1ccccc1
inactive: endpoint: mean survival time, dose: 177.0 mg/kg/injection, schedule: Q01DX001 (ip), vehicle: other 96 % of control | endpoint: mean survival time, dose: 267.0 mg/kg/injection, schedule: Q01DX001 (ip), vehicle: other 92 % of control | endpoint: mean survival time, dose: 400.0 mg/kg/injection, schedule: Q01DX001 (ip), vehicle: other 104 % of control | endpoint: mean survival time, dose: 600.0 mg/kg/injection, schedule: Q01DX001 (ip), vehicle: other 107 % of control

Cn1ncc2c(NCc3ccccc3)ncnc21
inactive: endpoint: mean survival time, dose: 18.0 mg/kg/injection, schedule: Q01DX009 (ip), vehicle: saline with Tween-80 114 % of control | endpoint: mean survival time, dose: 37.5 mg/kg/injection, schedule: Q01DX009 (ip), vehicle: saline with Tween-80 115 % of control

Cc1ccc(C2=CSc3ccccc3N2)c(C)c1
inactive: [12] 96 % of control | [13] 100 % of control | [14] 100 % of control

O=C(O)CCC(=O)Nc1cccc(Oc2ccc([N+](=O)[O-])cc2[N+](=O)[O-])c1
inactive: endpoint: mean survival time, dose: 100.0 mg/kg/injection, schedule: Q01DX009 (ip), vehicle: saline 94 % of control | endpoint: mean survival time, dose: 200.0 mg/kg/injection, schedule: Q01DX009 (ip), vehicle: saline 94 % of control | endpoint: mean survival time, dose: 400.0 mg/kg/injection, schedule: Q01DX009 (ip), vehicle: saline 100 % of control

O=C(O)c1cc2ccccc2o1
inactive: [15] 94 % of control | [6] 95 % of control | endpoint: mean survival time, dose: 200.0 mg/kg/injection, schedule: Q01DX001 (ip), vehicle: saline with Tween-80 98 % of control | [7] 94 % of control

ClCc1c2c(cc3c1CCCC3)CCCC2
inactive: [6] 105 % of control | [7] 93 % of control

CCOC(=O)CC(Cc1cc(OC)ccc1OC)(C(C)=O)C(C)=O
inactive: endpoint: mean survival time, dose: 12.5 mg/kg/injection, schedule: Q01DX009 (ip), vehicle: water 100 % of control | endpoint: mean survival time, dose: 25.0 mg/kg/injection, schedule: Q01DX009 (ip), vehicle: water 110 % of control | endpoint: mean survival time, dose: 50.0 mg/kg/injection, schedule: Q01DX009 (ip), vehicle: water 102 % of control | endpoint: mean survival time, dose: 100.0 mg/kg/injection, schedule: Q01DX009 (ip), vehicle: water 95 % of control | endpoint: mean survival time, dose: 200.0 mg/kg/injection, schedule: Q01DX009 (ip), vehicle: water 114 % of control

CCCCCC(=O)N1CCCCCC1
inactive: [3] 96 % of control | [4] 98 % of control | [5] 98 % of control

OCC1OC(n2c(C(F)(F)F)nc3cc4ccccc4cc32)C(O)C1O (stereo not drawn)
inactive: endpoint: median survival time, dose: 22.5 mg/kg/injection, schedule: Q01DX005 (ip), vehicle: saline with Tween-80 103 % of control | endpoint: median survival time, dose: 45.0 mg/kg/injection, schedule: Q01DX005 (ip), vehicle: saline with Tween-80 103 % of control | endpoint: median survival time, dose: 90.0 mg/kg/injection, schedule: Q01DX005 (ip), vehicle: saline with Tween-80 93 % of control | endpoint: median survival time, dose: 180.0 mg/kg/injection, schedule: Q01DX005 (ip), vehicle: saline with Tween-80 98 % of control

CCC(C)N(CCCOC(=O)c1ccc(N)cc1)C(C)CC (stereo not drawn)
inactive: endpoint: mean survival time, dose: 12.5 mg/kg/injection, schedule: Q04DX003 (ip), vehicle: saline 103 % of control | [1] 107 % of control | [2] 103 % of control

Nc1ncnc2[nH]ncc12
inactive: endpoint: median survival time, dose: 3.0 mg/kg/injection, schedule: Q01DX009 (ip), vehicle: saline 100 % of control and 105 % of control | endpoint: median survival time, dose: 6.0 mg/kg/injection, schedule: Q01DX009 (ip), vehicle: saline 114 % of control and 111 % of control | endpoint: median survival time, dose: 12.0 mg/kg/injection, schedule: Q01DX009 (ip), vehicle: saline 121 % of control and 111 % of control

Cc1nc2c(N)cc(Cl)cc2[nH]1
inactive: endpoint: median survival time, dose: 25.0 mg/kg/injection, schedule: Q01DX005 (ip), vehicle: saline with Tween-80 101 % of control | endpoint: median survival time, dose: 50.0 mg/kg/injection, schedule: Q01DX005 (ip), vehicle: saline with Tween-80 101 % of control | endpoint: median survival time, dose: 100.0 mg/kg/injection, schedule: Q01DX005 (ip), vehicle: saline with Tween-80 103 % of control

[B-][N+](C)(C)Cc1ccccc1
inactive: endpoint: mean survival time, dose: 25.0 mg/kg/injection, schedule: Q01DX009 (ip), vehicle: saline with Tween-80 94 % of control | [9] 88 % of control | [15] 101 % of control
